Here are results for eight compounds from PubChem BioAssay (NCI).

As usually defined, the GI50 is the concentration giving 50% growth inhibition. One may read the TGI as the concentration giving total growth inhibition. A higher TGI goes with less potent growth arrest.

Several values for one entry are separate records, joined by “and”; a condition that tells them apart may be missing. Equal entries are not always repeated.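 Interpolation was linear, between the two tested concentrations surrounding the appropriate level; five concentrations were tested over 48 hours in 96-well plates. GI50: concentration for 50% inhibition of growth. TGI: concentration producing complete growth inhibition.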 Bounds are passed on as bounds.

Among the test systems are UO-31 renal; SK-MEL-2 melanoma; NCI-H23 lung; SK-OV-3 ovarian; M14 melanoma; SF-295 CNS; TK-10 renal; T-47D breast; EKVX NSCLC; UACC-62 melanoma.
Assay in all cases: DTP human tumour cell line panel, 48 h

On to `Cc1ccc(S(=O)(=O)N[C@@H](Cc2ccccc2)C(=O)CCl)cc1`, for which the GI50 was 16.3 µM in the test with UO-31 renal; 15 µM in the test on SK-MEL-2 melanoma; 20.5 µM in the test on NCI-H23 lung; 47.5 µM with SK-OV-3 ovarian; 19.9 µM with M14 melanoma; 19.4 µM in the test with TK-10 renal. For the same compound, the GI50 with T-47D breast is 21.4 µM. In addition, the TGI with UO-31 renal is 39 µM; in the test on SK-MEL-2 melanoma, 35.8 µM; in the test with NCI-H23 lung it was 51.4 µM; in the test with SK-OV-3 ovarian it was above 100 µM; in the test with M14 melanoma, 63.1 µM; in the test with SF-295 CNS, 41.7 µM. In addition, the concentration for total growth inhibition (TGI) was 41.7 µM with TK-10 renal, above 100 µM in the test on T-47D breast and 36 µM in the test with EKVX NSCLC.
`COc1ccc(C2CC(c3cccc(OC)c3)=NN2C(=O)c2cc(OC)c(OC)c(OC)c2)cc1` (stereo unspecified): the GI50 was 1.1 µM in the test on UACC-62 melanoma; 1.59 µM in the test on UO-31 renal; 10.3 µM in the test on SK-MEL-2 melanoma; 2.76 µM in the test with NCI-H23 lung; 3.66 µM in the test with SK-OV-3 ovarian; 1.56 µM in the test on M14 melanoma. The GI50 in the test on SF-295 CNS was 0.654 µM; in the test with T-47D breast, 3.02 µM; in the test on EKVX NSCLC it was 3.35 µM. Further, the TGI was above 100 µM in the test with UACC-62 melanoma; above 100 µM with UO-31 renal; above 100 µM with SK-MEL-2 melanoma; above 100 µM in the test on NCI-H23 lung; above 100 µM in the test with SK-OV-3 ovarian; above 29.3 µM in the test with M14 melanoma. In addition, the TGI in the test with SF-295 CNS, in the test on TK-10 renal, in the test on T-47D breast and in the test on EKVX NSCLC was above 100 µM each time.
Take `CC1=C/C(O)CC(=O)Cc2nc(co2)C(=O)N2CCC=C2C(=O)OC(C(C)C)C(C)/C=C\C(=O)NC/C=C\1` (stereo unspecified): the GI50 was 20.1 µM in the test on UACC-62 melanoma; 25.7 µM with UO-31 renal; 10.1 µM in the test on SK-MEL-2 melanoma; 14.2 µM with NCI-H23 lung; 23 µM in the test on M14 melanoma; 22.3 µM with SF-295 CNS. Also, the figures for the GI50 with TK-10 renal, with T-47D breast and with EKVX NSCLC were above 100 µM, 8.3 µM and 36.4 µM, respectively. The TGI is > 57.6 µM and 32.3 µM in the test with UACC-62 melanoma; 91.7 µM with UO-31 renal; above 100 µM with SK-MEL-2 melanoma; 44.4 µM and 37.7 µM in the test with NCI-H23 lung; above 100 µM in the test on SK-OV-3 ovarian; > 100 µM and 42.3 µM with M14 melanoma. The TGI is above 100 µM in the test on SF-295 CNS; > 100 µM and 96.1 µM in the test with TK-10 renal; > 48.5 µM and 36.8 µM in the test with T-47D breast; > 100 µM and 53.3 µM in the test with EKVX NSCLC.
For the compound `NC(=S)N/N=C/c1ccc(OC(=O)COc2ccccc2)cn1`, the GI50 with UACC-62 melanoma was 4.67 µM; with UO-31 renal, 3.91 µM; in the test with SK-MEL-2 melanoma, above 100 µM; in the test on NCI-H23 lung, 4.49 µM; in the test with SK-OV-3 ovarian, 40.9 µM; in the test on M14 melanoma, 3.57 µM. Besides, the GI50 in the test on SF-295 CNS is 20.7 µM; in the test on TK-10 renal, above 100 µM; with T-47D breast it was 7.45 µM; with EKVX NSCLC, 40 µM. The TGI in the test with UACC-62 melanoma is above 100 µM; in the test with UO-31 renal it was 39.2 µM; in the test with SK-MEL-2 melanoma, above 100 µM; in the test on NCI-H23 lung it was above 100 µM; in the test with SK-OV-3 ovarian it was above 100 µM; in the test with M14 melanoma, 12.1 µM. Besides, the TGI in the test with SF-295 CNS, with TK-10 renal, in the test on T-47D breast and with EKVX NSCLC was above 100 µM throughout.
Take `C=C(CN(C)Cc1ccccc1)c1ccc(C(=O)Nc2ccccc2N)cc1`: the GI50 in the test on UACC-62 melanoma is 2.16 µM; in the test with UO-31 renal, 2.08 µM; with SK-MEL-2 melanoma it was 8.73 µM; in the test on NCI-H23 lung it was 0.397 µM; with SK-OV-3 ovarian, 5.28 µM; in the test on M14 melanoma it was 13.4 µM. Further, the GI50 was 5.4 µM in the test on SF-295 CNS, 7.12 µM in the test with TK-10 renal, 0.611 µM in the test with T-47D breast and 8.17 µM with EKVX NSCLC. Moreover, the TGI was found to be 18.4 µM with UACC-62 melanoma; 8.41 µM with UO-31 renal; 40.5 µM in the test on SK-MEL-2 melanoma; 7.93 µM in the test with NCI-H23 lung; 14.4 µM in the test with SK-OV-3 ovarian; 41.2 µM in the test with M14 melanoma. Also, the total growth inhibition concentration (TGI) in the test with SF-295 CNS stood at 16.7 µM; in the test on TK-10 renal it was 17.8 µM; in the test with T-47D breast, 4.75 µM; with EKVX NSCLC it was 37.9 µM.
For the compound `c1ccc2c(-c3cnn4cc(-c5ccc(N6CCNCC6)cc5)cnc34)ccnc2c1`, the GI50 in the test with UACC-62 melanoma is 1.41 µM; with UO-31 renal, 1.19 µM; in the test with SK-MEL-2 melanoma it was 1.57 µM; in the test with NCI-H23 lung, 1.48 µM; in the test with SK-OV-3 ovarian, 1.38 µM; in the test on M14 melanoma it was 0.297 µM. Moreover, the GI50 in the test with SF-295 CNS is 1.13 µM; in the test on TK-10 renal, 1.76 µM; in the test on T-47D breast, 1.42 µM; with EKVX NSCLC it was 1.89 µM. For the same compound, the TGI in the test on UACC-62 melanoma was 2.78 µM; in the test with UO-31 renal it was 2.43 µM; in the test on SK-MEL-2 melanoma, 2.98 µM; in the test with NCI-H23 lung, 3.05 µM; in the test on SK-OV-3 ovarian, 2.71 µM; in the test on M14 melanoma it was 0.962 µM. For the same compound, the TGI with SF-295 CNS was 2.48 µM; in the test with TK-10 renal, 3.2 µM; in the test with T-47D breast, 3.2 µM; in the test with EKVX NSCLC it was 3.76 µM.
As to `COC(=O)c1ccc(NC(N)=NCC(C)(C)COc2ccc(C(F)(F)F)cc2)nc1`, the GI50 in the test with UACC-62 melanoma was 1.66 µM; with UO-31 renal, 1.35 µM; with SK-MEL-2 melanoma it was 1.86 µM; in the test with NCI-H23 lung, 1.45 µM; with SK-OV-3 ovarian it was 1.8 µM; in the test on SF-295 CNS it was 1.61 µM. The GI50 in the test on TK-10 renal is 1.57 µM; in the test on T-47D breast, 1.37 µM; in the test on EKVX NSCLC, 1.43 µM. The TGI in the test with UACC-62 melanoma was found to be 3.1 µM; in the test on UO-31 renal it was 2.7 µM; with SK-MEL-2 melanoma, 3.47 µM; in the test on NCI-H23 lung, 3.09 µM; with SK-OV-3 ovarian, 3.45 µM; with SF-295 CNS, 3.04 µM. For the same compound, the TGI was 3 µM in the test with TK-10 renal, 3.21 µM with T-47D breast and 3.41 µM in the test on EKVX NSCLC.
On to `CCOC(=O)C(O)Cc1cnc2ccccc2n1` (stereo unspecified), for which the TGI with UACC-62 melanoma, in the test on UO-31 renal, in the test on SK-MEL-2 melanoma, in the test with NCI-H23 lung, with SK-OV-3 ovarian and in the test on M14 melanoma was above 100 µM each time. The concentration for total growth inhibition (TGI) in the test on TK-10 renal, with T-47D breast and with EKVX NSCLC was above 100 µM in each case.
